Experimental data taken from ChEMBL document CHEMBL1142409, “Synthetic ligands that activate and inhibit a quorum-sensing regulator in Pseudomonas aeruginosa” (Bioorg Med Chem Lett, 2008).

Columns and labels:
[1] = target: T1, Transcriptional activator protein LasR (Pseudomonas aeruginosa (strain ATCC 15692 / PAO1 / 1C / PRS 101 / LMG12228)) (UniProt P25084); assay: Inhibition of Pseudomonas aeruginosa LasR; parameters: concentration or dose not given beside the values; conditions: concentration not given here
T1 sequence (whole entry): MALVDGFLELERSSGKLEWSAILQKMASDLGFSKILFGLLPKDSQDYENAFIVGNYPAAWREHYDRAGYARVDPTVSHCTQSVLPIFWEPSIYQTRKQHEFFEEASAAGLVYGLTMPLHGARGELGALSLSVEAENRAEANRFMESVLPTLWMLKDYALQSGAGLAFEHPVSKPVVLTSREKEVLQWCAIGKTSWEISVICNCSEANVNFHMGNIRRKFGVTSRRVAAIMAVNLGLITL

[2] = target: T2, PhzR (Pseudomonas aeruginosa) (UniProt Q9RMS5); assay: Antagonist activity at Pseudomonas aeruginosa QscR expressed in Escherichia coli assessed as inhibition of dodecanoyl homoserine lactone induced production of beta-galactosidase at 5 uM; type: functional
T2 sequence (whole entry): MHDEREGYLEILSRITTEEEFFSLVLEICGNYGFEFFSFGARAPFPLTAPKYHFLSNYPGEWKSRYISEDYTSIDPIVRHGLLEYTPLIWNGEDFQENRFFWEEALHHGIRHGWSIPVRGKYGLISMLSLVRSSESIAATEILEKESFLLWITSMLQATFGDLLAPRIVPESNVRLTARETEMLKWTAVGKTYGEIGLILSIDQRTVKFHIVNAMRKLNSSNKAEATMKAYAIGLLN

(Pseudomonas aeruginosa) = target: T3, (Pseudomonas aeruginosa) (UniProt Q9RMS5); assay: Agonist activity at Pseudomonas aeruginosa QscR expressed in Escherichia coli assessed as production of beta-galactosidase at 5 uM relative to dodecanoyl homoserine lactone; type: functional
T3 sequence (whole entry): T2 sequence (whole entry)

[3] = target: T2, PhzR (Pseudomonas aeruginosa); assay: Inhibition of binding of Pseudomonas aeruginosa QscR to DNA at 200 uM in presence of 3-oxo-dodecanoyl -L-homoserine lactone by electromobility shift assay
[4] = target: QscR (Pseudomonas aeruginosa); assay: Antagonist activity at Pseudomonas aeruginosa QscR expressed in Escherichia coli assessed as inhibition of dodecanoyl homoserine lactone induced production of beta-galactosidase

Row | SMILES | inhibition [1] [%] | inhibition [2] [%] | Activity ((Pseudomonas aeruginosa)) [%] | inhibition [3] [%] | IC50 [4] [nM]
1 | O=C(Cc1cccc(Cl)c1)N[C@H]1CCOC1=O | 50 | 73 |  |  | 
2 | O=C(CC(=O)N[C@@H]1CCOC1=O)Cc1ccccc1 |  |  | 59 |  | 
3 | CC(C)(C)OC(=O)NCc1ccc(C(=O)N[C@H]2CCOC2=O)cc1 |  | 77 |  | 59 | 200
4 | CC(C)(C)OC(=O)Nc1ccc(CC(=O)N[C@H]2CCOC2=O)cc1 |  |  | 61 |  | 
5 | O=C(N[C@H]1CCOC1=O)c1ccc(Br)cc1 |  | 78 |  | 71 | 180
6 | CCOc1ccc(CC(=O)N[C@H]2CCOC2=O)cc1 |  | 75 |  | 82 | 160
7 | O=C(Cc1ccc(-c2ccccc2)cc1)N[C@H]1CCOC1=O | 20 | 88 |  | 100 | 30
8 | CCCCCCCCCCCS(=O)(=O)N[C@H]1CCOC1=O |  |  | 51 |  | 
9 | O=C(Cc1cccc([N+](=O)[O-])c1)N[C@H]1CCOC1=O | 50 | 71 |  |  | 

The next lines start with results.

Row | inhibition [1] [%] | inhibition [2] [%] | Activity ((Pseudomonas aeruginosa)) [%] | SMILES | inhibition [3] [%] | IC50 [4] [nM]
10 | 50 | 71 |  | O=C(Cc1cccc(Br)c1)N[C@H]1CCOC1=O |  | 
11 |  | 76 |  | CCCCCCCCc1ccc(C(=O)N[C@H]2CCOC2=O)cc1 | 100 | 
12 | > 50 |  | 64 | O=C(CCc1ccc(Br)cc1)N[C@H]1CCOC1=O |  | 
13 |  |  | 104 | CCCCCCCCCC(=O)N[C@H]1CCOC1=O |  | 
14 |  |  | 78 | CCCCCCCCCCCC(=O)CC(=O)N[C@H]1CCOC1=O |  | 
15 | > 50 |  | 74 | CCCCCC(=O)CC(=O)N[C@H]1CCOC1=O |  | 
16 |  |  | 109 | CCCCCCCCCC(=O)CC(=O)N[C@H]1CCOC1=O |  | 
17 |  |  | 54 | CCCc1ccc(C(=O)CCC(=O)N[C@H]2CCOC2=O)cc1 |  | 
18 | > 50 |  | 59 | CCCCCCCC(=O)N[C@H]1CCOC1=O |  | 
19 | 50 | 70 |  | O=C(Cc1cccc(I)c1)N[C@H]1CCOC1=O |  | 
